The target of the first test is T1, α-synuclein fibrils isolated from an MSA patient sample (Homo sapiens, UniProt P37840).
T1 construct: fresh-frozen tissue from the cerebellum of patients clinically and neuropathologically diagnosed with MSA; from tissue; host or cells: cerebellum of MSA patients (sarkosyl-insoluble filament preparation)
Kind of test: Cryo-EM co-structures of compounds with α-synuclein fibrils from MSA patient. It counts as binding. To be noted: cryo-EM; residues of SEQ ID NO: 9. The procedure: MSA filament purification. Filament purification was based on Schweigenhauser et al., 2020^2. Briefly, 1-2 g of fresh-frozen tissue from the cerebellum of patients clinically and neuropathologically diagnosed with MSA was homogenized at 20 mL/g of tissue in 10 mM Tris-HCl (pH 7.4), 800 mM NaCl, 1 mM EGTA, and 10% sucrose. A final concentration of 1% N-laurosarcosinate (w/v) was added to the homogenates, and these mixtures were incubated at 37° C. for 30 minutes. Homogenates were then centrifuged at 10,000 g for 10 minutes, and the supernatant was kept and then centrifuged at 100,000 g for 20 minutes. The pellets were resuspended at 500 μL/g of frozen tissue in 10 mM Tris-HCl (pH 7.4), 800 mM NaCl, 1 mM EGTA, and 10% sucrose. This was followed by another centrifugation at 3,000 g for 5 minutes. The supernatant was kept and diluted threefold with 50 mM Tris-HCl (pH 7.4), 150 mM NaCl, 10% sucrose, and 2% sarkosyl, followed by another centrifugation at 150,000 g for 1 hour. The final pellet resuspended in 30 mM Tris-HCl (pH 7.4) at a concentration of 100 μL/g frozen tissue.
Cryo-EM sample preparation and data collection. Purified frontal cortex and cerebellum tissue was incubated with 20 μM ligand for 45 minutes prior to freezing. For the tau PHF, 3 μL of purified filaments mixed with GTP-1 was added to a glow-discharged 200 mesh 1.2/1.3R Au Quantifoil grid for 10 seconds before blotting for 2 seconds, and then a second 3 μL aliquot was added for 3 seconds and blotted for 1 second before being plunge frozen in liquid ethane using a FEI Vitrobot Mark IV (Thermo Fisher Scientific). For the synuclein ligands, 3 μL of purified filaments mixed with compound was added to a 200 mesh 1.2/1.3R Au Quantifoil grid coated with a 2 nm thick layer of carbon, which had not been glow discharged. After 30 seconds, grids were blotted for 7.5 seconds at room temperature and 100% humidity. Grids were plunge frozen in liquid ethane using a FEI Vitrobot Mark IV. […] A defocus range of 0.8 to 1.8 μm was used with a total exposure time of 2.024 seconds fractionated into 0.025 seconds subframes. The total dose for each movie was 46 electrons/Å^2. Movies were motion-corrected using MotionCor2^3 in Scipion^4 and were Fourier cropped by a factor of 2 to a final pixel size of 0.834 Å per pixel.
Image processing. All image processing was done in RELION 4^5, and the same workflow was used for each dataset. Dose-weighted summed micrographs were imported into RELION 4. The contrast transfer function was estimated using CTFFIND-4.1^6. Filaments were manually picked and then segments were extracted with a box size of 900 pixels downscaled to 300 pixels. Contaminants and segments contributing to straight filaments were separated out using reference-free 2D class averaging. The remaining segments were re-extracted with a box size of 288 pixels without downscaling. An initial model was generated from a cylinder in RELION. One or more rounds of 3D classification with image alignment were performed, with helical rise and […] parameters fixed to eliminate obvious junk particles. One or more rounds of 3D auto-refinement was run using the best map from 3D classification low-pass filtered to 10 Å, allowing rise and twist parameters to vary. Maps were sharpened using the standard post-processing procedures in RELION.
Model building, refinement, and analysis. Prior to ligand placement, a single strand of a previously solved MSA or tau PHF filament structure^2 (PDB: 6XYQ) was refined against the density using Phenix^7. Refinement of the ligand binding pocket was done in COOT^8. Ligands were placed by hand in the density using Chimera^9. This model was then translated to give a stack spanning 5 rungs.
As to `CNC(=O)c1ncc2c(-c3ccnc(C(C)(F)F)n3)nn(-c3ccc(Cl)cc3)c2n1` [Compound 22, 1-(4-chlorophenyl)-3-(2-(1,1-difluoroethyl)pyrimidin-4-yl)-N-methyl-1H-pyrazolo[3,4-d]pyrimidine-6-carboxamide], the “binding site on α-synuclein” value is recorded as “bound to residues 86-99 of α-synuclein”.

The same test, now with this note: fibrils from MSA patient sample; 20 μM ligand.
`Cc1nccc2cc(-c3nc(-n4ccc5cccnc5c4=O)c(-c4ccc(C(F)(F)F)cc4)o3)ccc12` [compound 427]: the “binding to α-synuclein fibrils (cryo-EM co-structure)” value was “bound to fibrils isolated from an MSA patient sample”. Same read-out and setting: under `CNC(=O)c1ncc2c(-c3ccnc(C(C)(F)F)n3)nn(-c3ccc(Cl)cc3)c2n1` [Compound 22, 1-(4-chlorophenyl)-3-(2-(1,1-difluoroethyl)pyrimidin-4-yl)-N-methyl-1H-pyrazolo[3,4-d]pyrimidine-6-carboxamide] stands “bound to fibrils isolated from an MSA patient sample”; under `O=c1nc2c(ccn2C(F)(F)F)cn1-c1nc(-c2ccnc(C3CC3)n2)oc1-c1ccc(F)cc1` [compound 293], “bound to fibrils isolated from an MSA patient sample”. Still for that read-out and setting: the result for `CNc1nc(=O)n(-c2nc(-c3cccc(Cl)c3)oc2-c2ccc(Cl)c(F)c2)cc1F` [Compound 125, 1-(5-(4-chloro-3-fluorophenyl)-2-(3-chlorophenyl)oxazol-4-yl)-5-fluoro-4-(methylamino)pyrimidin-2(1H)-one] reads “bound to fibrils isolated from an MSA patient sample”.

For another test, the target named is T2, YFP-tagged full length 0N4R-Tau carrying a P301S mutation (T24 cells) (Homo sapiens, UniProt P10636, P618S).
T2 construct: C-terminally YFP-tagged full length 0N4R-Tau carrying a P301S mutation (T24 cells); expressed in transfected cells
T2 sequence (P10636 1-383 isoform P10636-6 P243S): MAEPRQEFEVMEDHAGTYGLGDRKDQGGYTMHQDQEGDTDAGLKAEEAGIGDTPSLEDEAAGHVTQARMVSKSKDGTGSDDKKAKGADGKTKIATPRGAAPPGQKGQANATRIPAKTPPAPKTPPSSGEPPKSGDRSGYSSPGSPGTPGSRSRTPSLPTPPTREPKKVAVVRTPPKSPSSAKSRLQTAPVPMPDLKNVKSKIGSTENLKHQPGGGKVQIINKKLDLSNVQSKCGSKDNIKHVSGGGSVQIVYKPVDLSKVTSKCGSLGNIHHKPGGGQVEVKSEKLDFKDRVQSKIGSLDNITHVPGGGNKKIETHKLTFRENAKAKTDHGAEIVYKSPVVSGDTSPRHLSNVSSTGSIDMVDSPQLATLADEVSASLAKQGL
Kind of test: Tau-AD high throughput screening (counter screen). It counts as cell-based. To be noted: final test concentration of 10 μM; T24 cells transfected with 416-AD11A lysate; 72 h; control is DMSO. The procedure:
A fragment of the Middle Tempral Gyrus (MTG) from Alzheimer's Disease (AD) patient 2217 was resuspended in 9 volumes of PBS (ml/g of brain) and homogenized 3×12 seconds using a probe homogenizer (Thomas Scientific) with disposable Omni Tip plastic homogenizing probes (Thomas Scientific Cat No 3409Y77) to generate a 10% brain homogenate (10% AD11-BH). The 10% AD11-BH was clarified of insoluble debris by centrifugation at 800×g for 5 minutes. The resulting supernatant was collected and the protein concentration of this clarified BH (AD11-CBH) was determined by bicinchoninic acid assay (BCA) (Thermo Fisher Cat No. 23227). HEK293 cells stably expressing a C-terminally Clover-tagged truncated 4R-Tau^243-382 transgene containing the P301L and V337M mutations and a C-terminally Ruby-tagged truncated 3R-Tau^243-382 transgene containing the L266V and V337M mutations (128/139 cells) were transfected with the AD11-CBH using lipofectamine 2000 (LF2K) (Thermo Fisher Cat No. 11668500). Briefly, 0.32 μl of LF2K were diluted in 5 μl Opti-MEM (Thermo Scientific Cat No 31985070) per well of a 384-well plate and incubated for 5 min at room temperature (RT). This mixture was added to 0.32 μg of AD11-CBH diluted in 5 μl of PBS per well of a 384-well plate and vortex briefly. The transfection mixture was incubated at room temperature for 90 min. The transfection complexes were subsequently added to a single well of a 384-well plate containing 3500 128/139 cells. After 3 days the cells were harvested, counted and plated at a density of 1 cell/well in a 96-well plate. A clonal cell line containing Clover and Ruby positive Tau aggregates was selected and termed 416-AD11A cells. Following the expansion of these 416-AD11A cells, a cell lysate was prepared by freeze/thaw. The cells from a confluent T175 flask were harvested in 1 ml of PBS containing 1× protease inhibitor cocktail by scraping. The cell suspension was subjected to 4 cycles of freezing in liquid nitrogen for 5 minutes followed by thawing at 37° C. for 5 minutes. The resulting cell lysate was centrifuged at 2000 RPM for 10 minutes to remove the cell debris and the protein concentration of the resulting 416-AD11A lysate was determined by BCA assay and aliquots frozen for future use.
HEK293 cells stably expressing C-terminally YFP-tagged full length 0N4R-Tau carrying a P301S mutation (T24 cells) are plated at a density of 4000 cells per well of a 384-well black walled, clear bottom plate (Greiner Cat No 5678-1091Q) in 60 μl of complete DMEM (DMEM (Corning Cat No 10-013-CV), 10% FBS (VWR Cat No 97068-085, 0.5% Penicillin/streptomycin (Gibco Cat No 15140-122)) containing 0.1 μg/ml Hoechst Dye (Thermo Scientific Cat No H3570). Transfection complexes are prepared by diluting 0.15 μg of 416-AD11A lysate or HEK lysate in 5 μl of PBS per well to be transfected and 0.15 μl of Lipofectamine 2000 (LF2K) (ThermoFisher Cat No 11668500) in 5 μl of Opti-MEM per well to be transfected in separate tubes. The pre-diluted 416-AD11A or HEK lysates and LF2K are subsequently mixed and allowed to incubate for 90 minutes at RT. A 10 μl aliquot of the 416-AD11A or HEK transfection complexes is added to the appropriate wells of the 384-well plate containing the T24 cells using the Bravo liquid handling platform (Agilent). Wells A23-P24 of the 384-well plate are transfected with HEK lysate to act as a reference point for spontaneous aggregation of 0N4R^P301S and for transfection related toxicity. The dilution of test compounds is performed using the Bravo liquid handling platform (Agilent). The control is DMSO in the absence of any test compound. Briefly, 1 μl of each test compound (5 mM stock) in the 384-well test plate was transferred to a 384-well plate (Greiner Cat No 781280) containing 61.5 μl of complete DMEM to generate a working stock of compounds at 80 μM. […]
In general terms: A counterscreen serves to expose hits that act by an unwanted route or on another target.
Take `Cc1cc(-c2nc(-n3cc4ccn(C5CC5)c4nc3=O)c(-c3ccc(F)c(F)c3)o2)ncc1F` [Compound 234]: the “AD Tau Aggregates (% control)” value is listed as 85 % control.

For the compound `CC(=O)Nc1ncc2c(-c3ccccc3)nn(CC3CCCCC3)c2n1` [Compound 280], the “AD Tau Aggregates (% control)” value is listed as 90 % control.

On to `CNC(=O)c1ncc2c(-c3ccccc3Cl)nn(-c3ccc(F)cc3)c2n1` [Compound 244], for which the “AD Tau Aggregates (% control)” value is listed as 100 % control.

Turning to `CNC(=O)c1ncc2c(-c3ccc(F)cc3)nn(Cc3cccc(F)c3)c2n1` [Compound 260], the “AD Tau Aggregates (% control)” value is recorded as 95 % control. Same read-out and setting: under `CNC(=O)c1ncc2c(-c3ccc(F)cc3)nn(Cc3ccc(F)cc3)c2n1` [Compound 261] stands 87 % control.

Turning to `Cc1ccn(-c2nc(-n3cc4ccn(C(F)(F)F)c4nc3=O)c(-c3ccc(F)cc3)o2)n1` [Compound 241], the “AD Tau Aggregates (% control)” value turned out to be 98 % control. For the compound `CNC(=O)c1ncc2c(-c3ccc(F)cc3)nn(Cc3ccnc(F)c3)c2n1` [Compound 259], the “AD Tau Aggregates (% control)” value is recorded as 99 % control. Take `CNC(=O)c1ncc2c(-c3cc4c(cnn4C)cc3F)nn(Cc3ccccc3)c2n1` [Compound 253]: the “AD Tau Aggregates (% control)” value was found to be 96 % control. Same read-out and setting: under `CCC(=O)Nc1ncc2c(-c3ccccc3)nn(Cc3ccc(OC)cc3)c2n1` [Compound 269] stands 100 % control. Take `CC(=O)Nc1ncc2c(-c3ccccc3)nn(C(C)c3ccccc3)c2n1` (centres unmarked) [Compound 265]: the “AD Tau Aggregates (% control)” value came to 110 % control. Still for that read-out and setting: under `CCc1ccccc1-c1nn(-c2ccc(F)cc2)c2nc(C(=O)NC)ncc12` [Compound 245] stands 120 % control; under `CC(=O)Nc1ncc2c(-c3ccccc3)nn(Cc3cncc(F)c3)c2n1` [Compound 267], 91 % control; under `COC(=O)Nc1ncc2c(-c3ccccc3)nn(-c3ccccc3)c2n1` [Compound 274], 94 % control.

For the compound `CC(=O)Nc1ncc2c(-c3ccccc3)nn(Cc3ccncc3)c2n1` [Compound 279], the “AD Tau Aggregates (% control)” value was 92 % control.

Consider `CNC(=O)c1ncc2c(-c3ccccc3)nn(-c3ccc(F)cc3)c2n1` [Compound 246], for which the “AD Tau Aggregates (% control)” value is 120 % control. Same read-out and setting: the result for `CNC(=O)c1ncc2c(-c3cccc4c3OC(F)(F)O4)nn(Cc3ccccc3)c2n1` [Compound 254] reads 100 % control; that for `O=c1nc2c(ccn2C(F)(F)F)cn1-c1nc(N2Cc3ccccc3C2)oc1-c1ccc(F)cc1` [Compound 242], 99 % control. Same read-out and setting: the result for `CC(=O)Nc1ncc2c(-c3ccccc3C)nn(Cc3ccccc3)c2n1` [Compound 266] reads 98 % control; that for `Cc1ccnn1-c1nc(-n2cc3ccn(C(F)(F)F)c3nc2=O)c(-c2ccc(F)cc2)o1` [Compound 240], 95 % control. On the same count and under the same terms, the result for `CNC(=O)c1ncc2c(-c3ccccc3)nn(Cc3ccccc3)c2n1` [Compound 248] reads 95 % control; that for `CNC(=O)c1ncc2c(-c3ccc(F)cc3)nn(CC3CCCCC3)c2n1` [Compound 258], 110 % control.

For the origin of these results see US20240201205A1, “METHOD FOR DETECTING NEUROLOGICAL DISEASES USING SUPRAMOLECULE POLYMER THERAPEUTICS” (The Regents of the University of California, priority 2022, published 2024).
